From patent publication US7494996B2 (priority 2000, dated 2009)

Tests used:
[1] = tested on: Sphaerotheca fuliginea; test: Cucumber Powdery Mildew (CPM) protectant test in the greenhouse; type: in vivo; conditions: 100 is total disease control, 0 is no disease control; for Cucumber Powdery Mildew (CPM) protectant fungicide data, percent control: 300 g/ha; for pest or weed control at 300 g/ha: Podosphaera fuliginea, topical, 168 h, read-out: Cucumber Powdery Mildew (CPM) protectant fungicide data, percent control
Outline: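 Compounds in acetone-methanol-water (1:1:2) sprayed onto cucumber cv. "Bush Champion" (cotyledons plus one true leaf, 13 days old), dried 4 h. Inoculated 1 day later with 2×10^5 spores/ml; disease control (%) rated after 7 days in greenhouse.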

[2] = tested on: Pyricularia oryzae; test: whole plant or invertebrate; type: in vivo; conditions: 100 is total disease control, 0 is no disease control; for Rice Blast (RB) protectant fungicide data, percent control: 300 g/ha, greenhouse; for pest or weed control at 300 g/ha: Pyricularia oryzae, topical, 144 h, read-out: Rice Blast (RB) protectant fungicide data, percent control, protectant, 300 g/ha, greenhouse
[3] = tested on: Southern Armyworm; test: Protocol 1 Southern Armyworm (AW) foliar spray test; type: in vivo, Spodoptera eridania
Description: (§1) A test solution containing 1250 parts per million (ppm) was prepared by dissolving the test compound in […] of a second solvent (acetone: water, 1:1) to give an acetone:water: methanol system of 50: 40:10.
(§2) The enclosed spraying chamber consisted of a single spray nozzle mounted on a boom moving at a fixed speed and distance over stationary targets. The vertical distance from the nozzle tip to the targets was adjusted to give rates varying from 150 g/ha to 600 g/ha
(§3) Individual fully expanded primary lima bean (Phaseolus limensis) leaves were placed bottom side up on moistened pieces of filter paper in Petri dishes. The leaves were sprayed with the test solutions and allowed to dry. The dishes were infested with 5 third instar larvae of the southern armyworm, covered with the lids, and held at 27° C. Armyworm control was rated by visual inspection after 48 hours. […] A rating of 0 indicated no dead larvae and normal feeding. Intermediate control was indicated by intermediate ratings.

[4] = tested on: Mexican Bean Beetle; test: Protocol 1 Mexican Bean Beetle (BB) foliar spray test; type: in vivo, Epilachna verivestis; conditions: control rated after 48 hours (100 = all larvae dead)
Description: as §1, §2
as §3, with “mexican bean beetle,” for “southern armyworm,”, “Bean beetle” for “Armyworm”

[5] = tested on: Two-Spotted Spider Mite; test: Protocol 1 Two-Spotted Spider Mite (MTA) foliar spray test; type: in vivo, Tetranychus urticae; conditions: percentage of mites killed 1-day post-treatment
Description: as §1, §2
A pad of moistened cotton was placed in a Petri dish. A 1-inch square section cut from a fully expanded primary lima bean (Phaseolus limensis) leaf was positioned bottom side up on the moist cotton. The leaf square was infested with approximately 50 adult female mites. The dishes were sprayed with the test solutions and held at 27° C. for mortality determination 1-day post-treatment. The percentage of mites killed were rated from 100% (all dead) to 0% (all alive).

SMILES: COC1NC(c2ccc(Cl)cc2)=NN(CC(F)(F)F)C1=O (centres unmarked) [Compound 26]
- Cucumber Powdery Mildew (CPM) protectant fungicide data, percent control [1]: 95 percent control
- Rice Blast (RB) protectant fungicide data, percent control [2]: 100 percent control
- AW ([3]; Protocol 1, DOSE 300): 0
- BB ([4]; Protocol 1, DOSE 300): 50
- MTA ([5]; Protocol 1, DOSE 300): 0%

SMILES: CC(C)(C)N1N=C(c2ccc(Cl)cc2)NCC1=O [Compound 6, 1-t-Butyl-3-(4-chlorophenyl)-4,5-dihydro-1,2,4-triazin-6-one]
- pest or weed control at 300 g/ha [1]: 50%
- pest or weed control at 300 g/ha [2]: 90%
- AW ([3]; Protocol 1, DOSE 300): 0
- BB ([4]; Protocol 1, DOSE 300): 100

SMILES: O=C1CNC(c2cc3ccccc3s2)=NN1CC(F)(F)F [Compound 163]
- Cucumber Powdery Mildew (CPM) protectant fungicide data, percent control [1]: 0 percent control
- Rice Blast (RB) protectant fungicide data, percent control [2]: 90 percent control
- MTA ([5]; Protocol 1, DOSE 150): 100%

SMILES: O=C1CNC(c2cccc(Cl)c2)=NN1CC(F)(F)F [Compound 37]
- Cucumber Powdery Mildew (CPM) protectant fungicide data, percent control [1]: 75 percent control
- Rice Blast (RB) protectant fungicide data, percent control [2]: 95 percent control
- AW ([3]; Protocol 1, DOSE 300): 100
- BB ([4]; Protocol 1, DOSE 300): 75
- MTA ([5]; Protocol 1, DOSE 300): 75%

SMILES: Cc1cccc(N2N=C(c3cccc(Cl)c3)NCC2=O)c1 [Compound 112]
- Cucumber Powdery Mildew (CPM) protectant fungicide data, percent control [1]: 80 percent control
- Rice Blast (RB) protectant fungicide data, percent control [2]: 85 percent control
- MTA ([5]; Protocol 1, DOSE 150): 0%

SMILES: O=c1cnc(C2CCCCC2)nn1CC(F)(F)F [Compound 251]
- Cucumber Powdery Mildew (CPM) protectant fungicide data, percent control [1]: 0 percent control
- Rice Blast (RB) protectant fungicide data, percent control [2]: 75 percent control
- AW ([3]; Protocol 1, DOSE 150): 0
- BB ([4]; Protocol 1, DOSE 150): 50
- MTA ([5]; Protocol 1, DOSE 150): 75%

SMILES: C=CCOC(=O)N1CC(=O)N(CCCC)N=C1c1cc(Cl)cc(Cl)c1 [Compound 135]
- Cucumber Powdery Mildew (CPM) protectant fungicide data, percent control [1]: 50 percent control
- Rice Blast (RB) protectant fungicide data, percent control [2]: 90 percent control
- MTA ([5]; Protocol 1, DOSE 150): 43%

SMILES: CCC#CCn1nc(-c2ccc(Cl)cc2)ncc1=O [Compound 8, 1-(2-pentynyl)-3-(4-chlorophenyl)-1,2,4-triazin-6-one]
- pest or weed control at 300 g/ha [1]: 90%
- pest or weed control at 300 g/ha [2]: 99%
- AW ([3]; Protocol 1, DOSE 300): 0
- BB ([4]; Protocol 1, DOSE 300): 0

SMILES: O=c1cnc(-c2ccccc2)nn1CC(F)(F)F [Compound 7, 1-(2,2,2-trifluoroethyl)-3-phenyl-1,2,4-triazin-6-one]
- pest or weed control at 300 g/ha [1]: 75%
- pest or weed control at 300 g/ha [2]: 95%
- AW ([3]; Protocol 1, DOSE 300): 0
- BB ([4]; Protocol 1, DOSE 300): 100

SMILES: Cc1nc(-c2ccc(Cl)cc2)nn(CC(F)(F)F)c1=O [compound 239]
- AW ([3]; Protocol 1, DOSE 300): 0
- BB ([4]; Protocol 1, DOSE 300): 75
- MTA ([5]; Protocol 1, DOSE 300): 0%

SMILES: C=COC(=O)N1CC(=O)N(CCCC)N=C1c1cc(Cl)cc(Cl)c1 [Compound 127]
- Cucumber Powdery Mildew (CPM) protectant fungicide data, percent control [1]: 50 percent control
- Rice Blast (RB) protectant fungicide data, percent control [2]: 95 percent control
- MTA ([5]; Protocol 1, DOSE 150): 95%

SMILES: CCCCCCn1nc(-c2ccc(Cl)cc2)ncc1=O [Compound 262]
- Cucumber Powdery Mildew (CPM) protectant fungicide data, percent control [1]: 80 percent control
- Rice Blast (RB) protectant fungicide data, percent control [2]: 85 percent control
- MTA ([5]; Protocol 1, DOSE 150): 0%

SMILES: O=C1CNC(c2ccc(Cl)cc2)=NN1CC(F)(F)F [Compound 4, 1-(2,2,2-trifluoroethyl)-3-(4-chlorophenyl)-4,5-dihydro-1,2,4-triazin-6-one]
- pest or weed control at 300 g/ha [1]: 50%
- pest or weed control at 300 g/ha [2]: 99%
- AW ([3]; Protocol 1, DOSE 300): 75
- BB ([4]; Protocol 1, DOSE 300): 0

SMILES: CCCCCCCCCCn1nc(-c2ccc(Cl)cc2)ncc1=O [Compound 260]
- Cucumber Powdery Mildew (CPM) protectant fungicide data, percent control [1]: 0 percent control
- Rice Blast (RB) protectant fungicide data, percent control [2]: 75 percent control
- MTA ([5]; Protocol 1, DOSE 150): 0%

SMILES: C[Si](C)(C)Cn1nc(-c2ccc(Cl)cc2)ncc1=O [Compound 265]
- Cucumber Powdery Mildew (CPM) protectant fungicide data, percent control [1]: 90 percent control
- Rice Blast (RB) protectant fungicide data, percent control [2]: 85 percent control
- MTA ([5]; Protocol 1, DOSE 150): 0%

SMILES: O=C1CNC(c2ccc(Cl)cc2)=NN1 [Compound 5, 3-(4-Chlorophenyl)-4,5-dihydro-1,2,4-triazin-6-one]
- pest or weed control at 300 g/ha [1]: 50%
- pest or weed control at 300 g/ha [2]: 75%
- AW ([3]; Protocol 1, DOSE 600): 50
- BB ([4]; Protocol 1, DOSE 300): 75

SMILES: COC(=O)C(=O)N1CC(=O)N(CC(F)(F)F)N=C1c1cc(Cl)cc(Cl)c1 [Compound 123]
- Cucumber Powdery Mildew (CPM) protectant fungicide data, percent control [1]: 50 percent control
- Rice Blast (RB) protectant fungicide data, percent control [2]: 95 percent control
- MTA ([5]; Protocol 1, DOSE 150): 0%

SMILES: O=c1cnc(-c2ccc(Cl)cc2)nn1Cc1ccc(Cl)s1 [Compound 266]
- Cucumber Powdery Mildew (CPM) protectant fungicide data, percent control [1]: 50 percent control
- Rice Blast (RB) protectant fungicide data, percent control [2]: 90 percent control
- MTA ([5]; Protocol 1, DOSE 150): 0%

SMILES: O=c1cnc(-c2ccc(Cl)cc2)nn1C1CCCCC1 [Compound 256]
- Rice Blast (RB) protectant fungicide data, percent control [2]: 95 percent control
- AW ([3]; Protocol 1, DOSE 150): 0
- BB ([4]; Protocol 1, DOSE 150): 0
- MTA ([5]; Protocol 1, DOSE 150): 90%

SMILES: CN1CC(=O)N(CC(F)(F)F)N=C1c1ccccc1 [Compound 34]
- AW ([3]; Protocol 1, DOSE 300): 0
- BB ([4]; Protocol 1, DOSE 300): 75
- MTA ([5]; Protocol 1, DOSE 300): 0%

SMILES: Cn1nc(-c2ccccc2)ncc1=O [compound 242]
- AW ([3]; Protocol 1, DOSE 300): 0
- BB ([4]; Protocol 1, DOSE 300): 90
- MTA ([5]; Protocol 1, DOSE 300): 100%

SMILES: O=C1CNC(c2ccc(Cl)c(Cl)c2)=NN1Cc1ccccc1 [Compound 103]
- Cucumber Powdery Mildew (CPM) protectant fungicide data, percent control [1]: 0 percent control
- Rice Blast (RB) protectant fungicide data, percent control [2]: 90 percent control
- MTA ([5]; Protocol 1, DOSE 150): 23%

SMILES: CCCCn1nc(-c2cc(Cl)cc(Cl)c2)ncc1=O [Compound 271]
- Cucumber Powdery Mildew (CPM) protectant fungicide data, percent control [1]: 50 percent control
- Rice Blast (RB) protectant fungicide data, percent control [2]: 99 percent control
- MTA ([5]; Protocol 1, DOSE 150): 93%

SMILES: CCCSC1NC(c2ccc(Cl)cc2)=NN(CC(F)(F)F)C1=O (centres unmarked) [Compound 19, 1-(2,2,2-trifluoroethyl)-3-(4-chlorophenyl)-5-propylthio-4,5-dihydro-1,2,4-triazin-6-one]
- pest or weed control at 300 g/ha [1]: 75%
- pest or weed control at 300 g/ha [2]: 100%
- AW ([3]; Protocol 1, DOSE 150): 0
- BB ([4]; Protocol 1, DOSE 150): 100

SMILES: CCCCn1nc(-c2ccc(Cl)c(Cl)c2)ncc1=O [Compound 270]
- Cucumber Powdery Mildew (CPM) protectant fungicide data, percent control [1]: 95 percent control
- Rice Blast (RB) protectant fungicide data, percent control [2]: 100 percent control
- MTA ([5]; Protocol 1, DOSE 150): 0%

SMILES: O=C1CNC(c2cc(Cl)ccc2Cl)=NN1CC(F)(F)F [Compound 70]
- Cucumber Powdery Mildew (CPM) protectant fungicide data, percent control [1]: 80 percent control
- Rice Blast (RB) protectant fungicide data, percent control [2]: 80 percent control
- MTA ([5]; Protocol 1, DOSE 150): 71%

SMILES: CCCCCCCCn1nc(-c2ccc(Cl)cc2)ncc1=O [Compound 259]
- Cucumber Powdery Mildew (CPM) protectant fungicide data, percent control [1]: 75 percent control
- Rice Blast (RB) protectant fungicide data, percent control [2]: 90 percent control
- MTA ([5]; Protocol 1, DOSE 150): 0%

SMILES: CCN1N=C(c2ccc(Cl)c(Cl)c2)NCC1=O [Compound 100]
- Cucumber Powdery Mildew (CPM) protectant fungicide data, percent control [1]: 80 percent control
- Rice Blast (RB) protectant fungicide data, percent control [2]: 99 percent control
- MTA ([5]; Protocol 1, DOSE 150): 25%

SMILES: C#CCOC(=O)N1CC(=O)N(CCCC)N=C1c1cc(Cl)cc(Cl)c1 [Compound 133]
- Cucumber Powdery Mildew (CPM) protectant fungicide data, percent control [1]: 0 percent control
- Rice Blast (RB) protectant fungicide data, percent control [2]: 80 percent control
- MTA ([5]; Protocol 1, DOSE 150): 0%

SMILES: CCCCN1N=C(c2ccc(Cl)c(Cl)c2)NCC1=O [Compound 101]
- Cucumber Powdery Mildew (CPM) protectant fungicide data, percent control [1]: 80 percent control
- Rice Blast (RB) protectant fungicide data, percent control [2]: 100 percent control
- MTA ([5]; Protocol 1, DOSE 150): 0%

SMILES: CCCCN1N=C(c2cccc(Cl)c2)NCC1=O [Compound 110]
- Cucumber Powdery Mildew (CPM) protectant fungicide data, percent control [1]: 90 percent control
- Rice Blast (RB) protectant fungicide data, percent control [2]: 99 percent control
- MTA ([5]; Protocol 1, DOSE 150): 100%

SMILES: O=C1CN(Cc2ccc(Cl)s2)C(c2ccc(Cl)cc2)=NN1Cc1ccc(Cl)s1 [Compound 63]
- MTA ([5]; Protocol 1, DOSE 150): 0%

SMILES: CCCCN1N=C(c2ccc(F)c(F)c2)NCC1=O [Compound 69]
- Cucumber Powdery Mildew (CPM) protectant fungicide data, percent control [1]: 80 percent control
- Rice Blast (RB) protectant fungicide data, percent control [2]: 95 percent control
- MTA ([5]; Protocol 1, DOSE 150): 68%

SMILES: O=C1CNC(c2cc(Cl)cc(Cl)c2)=NN1CC1CC1 [Compound 109]
- Cucumber Powdery Mildew (CPM) protectant fungicide data, percent control [1]: 95 percent control
- Rice Blast (RB) protectant fungicide data, percent control [2]: 100 percent control
- MTA ([5]; Protocol 1, DOSE 150): 90%
